Source: US20200255487A1, “A Cell-Based Seeding Assay for Huntingtin Aggregation” (THE REGENTS OF THE UNIVERSITY OF CALIFORNIA, priority 2017, published 2020)

System: HTT-ΔN17-46Q-GFP
Test: cell-based HTT seeding assay (ΔN17-1E cells)
Design: species or system human
Settings: for induction of intracellular HTT-ΔN17-46Q-GFP aggregation by extracellularly applied seeds: ΔN17-1E (HEK293) cells, substance applied as seed, FIG. 4
Description: Described herein is the development of a cell-based HTT seeding assay. A DNA construct encoding Exon1 of mutant human HTT with a 46 polyQ repeat was designed (FIG. 1C). This mutant HTT was engineered to delete amino acid residues 2-16 and was fused with a green fluorescent protein (GFP) at its C-terminus, named HTT-ΔN17-46Q-GFP hereafter. The HTT-ΔN17-46Q-GFP was then cloned into a pcDNA3 vector and transfected into HEK293 cells. Clones of stably transfected cells expressing HTT-ΔN17-46Q-GFP were selected to generate individual cell lines. Expression of the transgene in the cell lines was characterized to confirm its morphology, expression level and subcellular localization. Line 1E, named ΔN17-1E cells, was selected based on it moderate transgene expression with minimal protein aggregates at the baseline. Based on this cell line, a cell-based HTT seeding assay was developed. Extracellular application of preformed HTT aggregates or biosamples from HD patients as “seeds”, to ΔN17-1E cells could induce intracellular aggregation of HTT-ΔN17-46Q-GFP proteins (FIG. 1 through FIG. 3). This seeding-induced aggregation event is similar to in vitro HTT aggregation, which preformed aggregates, or seeds, nucleates and facilitates the aggregation of HTT exon 1 monomers. Moreover, this activity is specific to utilizing aggregates of polyQ proteins since neither aggregates of β-amyloid and Tau nor biosamples from AD and PD patients could elicit HTT-ΔN17-46Q-GFP aggregation (FIG. 4). The level of induced aggregates positively correlates with the amount of recombinant seeds added. Importantly, the seedability of the biosamples also correlates with the disease stage of the patients. Currently, the assay has been optimized to be performed in a high-throughput format, making it more capable with large quantity of samples. Thus, this cell-based seeding assay could be extremely useful for detecting seedible species in the biosamples, which is shown by us to increase as the disease progressing, and thus could be used as a biomarker for HD diagnosis and clinical trials, as well as for drug discovery.

Substance	induction of intracellular HTT-ΔN17-46Q-GFP aggregation by extracellularly applied seeds	HTT-ΔN17-46Q-GFP aggregation induced by HD CSF, with overexpression (ΔN17 cells, overexpression by transit transfection, induced by HD CSF, FIG. 10)	HTT-ΔN17-46Q-GFP aggregation induced by preformed mHTT-exon1 seeds, with overexpression (ΔN17 cells, overexpression by transit transfection, induced by preformed mHTT-exon1 seeds, FIG. 10)
phosphorylated tau: phosphorylated tau used as non-HTT seed control [reference compound]	did not elicit the aggregation		
fibrillar Aβ: fibrillar Aβ used as non-HTT seed control [reference compound]	did not elicit the aggregation		
DNAJB6: DNAJB6 of the Hsp40 family, overexpressed in ΔN17 cells by transit transfection		dramatically reduced	dramatically reduced
